From patent US20100184815A1 (priority 2008, published 2010)
Where two headings read alike, the source gives them in different places.

Legend:
Gal-4 hPPARγ = target: T1, Gal-4 hPPARγ (Homo sapiens, UniProt P37231); assay: Gal4-hPPARγ transient transfection reporter assay in Cos cells; assay type: cell-based; details: luciferase reporter, 24 hours with compound, scale 1-5, read-out: Gal-4 hPPAR γ EC50 (scaled number)
T1 construct: Plasmids pGal4-hPPARα, pGal4-hPPARγ, pGal4-hPPARδ and pG5-TK-pGL3 were constructed as previously described by Staels, Bart, et al., Nature 1998 Jun; 25
T1 sequence (P37231 238-505 limits assumed): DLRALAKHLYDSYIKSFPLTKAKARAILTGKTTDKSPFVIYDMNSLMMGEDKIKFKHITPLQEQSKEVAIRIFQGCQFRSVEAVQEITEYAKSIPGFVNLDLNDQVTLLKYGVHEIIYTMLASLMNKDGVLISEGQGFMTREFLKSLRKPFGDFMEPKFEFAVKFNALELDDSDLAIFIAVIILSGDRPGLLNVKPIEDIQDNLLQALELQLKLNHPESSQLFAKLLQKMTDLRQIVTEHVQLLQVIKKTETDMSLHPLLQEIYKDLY
Summary of the method: (§1)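 Cos cells transiently co-transfected with Gal4-hPPAR expression plasmid, pG5-TK-pGL3 luciferase reporter and β-galactosidase control, then treated 24 h with increasing compound concentrations in DMEM containing 0.2% FCS. Luciferase normalised to β-galactosidase; EC50 from curve fit, at least three experiments.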

Gal-4 hPPARβ/δ = target: T2, Gal-4 hPPARβ/δ (Homo sapiens, UniProt Q03181); assay: Gal4-hPPARδ transient transfection reporter assay in Cos cells; assay type: cell-based; details: luciferase reporter, 24 hours with compound, scale 1-5, read-out: Gal-4 hPPAR β/δ EC50 (scaled number)
T2 construct: Plasmids pGal4-hPPARα, pGal4-hPPARγ, pGal4-hPPARδ and pG5-TK-pGL3 were constructed as previously described by Staels, Bart, et al., Nature 1998 Jun; 25
T2 sequence (Q03181 171-441 limits assumed): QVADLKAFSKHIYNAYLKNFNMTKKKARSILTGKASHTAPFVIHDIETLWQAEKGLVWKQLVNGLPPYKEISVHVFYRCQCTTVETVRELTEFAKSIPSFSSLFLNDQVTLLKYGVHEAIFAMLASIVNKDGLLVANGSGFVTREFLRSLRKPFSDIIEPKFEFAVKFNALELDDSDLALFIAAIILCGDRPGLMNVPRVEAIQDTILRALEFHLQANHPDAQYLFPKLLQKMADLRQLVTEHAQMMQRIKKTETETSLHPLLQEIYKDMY
Summary of the method: as §1

Full Length hPPARα = target: T3, Full Length hPPARα (Homo sapiens, UniProt Q07869); assay: Full length hPPARα transfection assay; assay type: cell-based; details: full length receptor; read-out: Full Length hPPAR α EC50 (scaled number)
T3 construct: Full Length; expressed in transfected cells; host or cells: Cos cells
T3 sequence (Q07869 1-468): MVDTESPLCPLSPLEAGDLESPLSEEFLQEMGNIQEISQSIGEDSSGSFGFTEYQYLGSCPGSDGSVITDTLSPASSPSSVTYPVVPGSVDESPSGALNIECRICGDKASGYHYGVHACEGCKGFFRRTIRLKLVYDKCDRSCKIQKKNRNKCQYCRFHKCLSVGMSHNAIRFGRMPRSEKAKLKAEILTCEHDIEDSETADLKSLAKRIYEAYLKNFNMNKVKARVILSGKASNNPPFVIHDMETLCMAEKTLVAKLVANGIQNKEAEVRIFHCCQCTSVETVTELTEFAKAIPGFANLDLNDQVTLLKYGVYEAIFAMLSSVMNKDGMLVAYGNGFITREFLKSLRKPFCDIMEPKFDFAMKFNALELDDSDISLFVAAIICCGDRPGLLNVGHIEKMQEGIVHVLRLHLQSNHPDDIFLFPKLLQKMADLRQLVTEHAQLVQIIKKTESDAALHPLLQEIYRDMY
Protocol: Transient transfection assays. Cos cells were seeded in 60-mm dishes at a density of 5.5×10^5 cells/dish in Dulbecco's modified Eagle's medium (DMEM) supplemented with 10% fetal calf serum (FCS) and incubated at 37° C. for 24 hours before transfection. Cells were transfected in Opti-MEM (Gibco; Invitrogen, Carlsbad, Calif.) without FCS for 3 hours at 37° C., using polyethylenimine, with reporter and expression plasmids. The plasmid pBluescript (Stratagene, La Jolla, Calif.) was used as carrier DNA to set the final amount of DNA to 5.5 μg/dish. The pCMV-b-galactosidase expression plasmid was cotransfected as a control for transfection efficiency. Transfection was stopped by the addition of DMEM supplemented with 10% FCS, and cells were then incubated at 37° C. After 16 hours, cells were trypsinized and seeded in 96-well plates at the density of 2×10^4 cells/well and incubated for 6 hours in 10% FCS-containing DMEM. Cells were then incubated for 24 hours in DMEM containing 0.2% FCS and increasing concentrations of the compound tested or vehicle (DMSO). At the end of the experiment, cells were washed once with ice-cold PBS, lysed and the luciferase and b-galactosidase assays were performed in a luminometer and spectrophotomer. Transfection efficiencies were normalized with the b-galactosidase activity assay. Half-maximal effective concentration (EC50) was estimated using Prism software (GraphPad). All transfection experiments were performed at least three times.
In the following tables, proprietary compound EC50 values for hPPAR α, β, δ and γ are shown. The EC50 value is the concentration of a drug that induces a response halfway between the baseline and maximum, and is commonly used as a measure of drug potency. EC50 values are reported on a scale of 1 through 5, wherein the value scale is defined for each receptor as follows: […]

pig liver esterase = assay: Metabolism studies using pig liver esterase; assay type: in vitro ADME; details: 37° C.
Protocol: The esterase-mediated metabolism of these compounds was studied using commercially available pig liver esterase in the presence and absence of human plasma proteins. The disappearance of parent was monitored over the time course of the incubations using a LC-UV detection system.
A stock solution and working stock solution was prepared for each proprietary compound as described for the human liver microsomal incubations. Working solutions of pig liver esterase in potassium phosphate buffer ([…], pH 7.4) and pig liver esterase in human plasma protein were prepared by dissolving pig liver esterase (2.51 mg) in the phosphate buffer or plasma protein solutions, respectively.
A set of three Eppendorf microfuge tubes (1.5 mL) was appropriately labeled. To each tube was added 1.5 mL of phosphate buffer, pig liver esterase in buffer, or pig liver esterase in human plasma protein solution. These solutions were pre-incubated (37° C., 900 rpm) and the reactions were initiated by adding an aliquot (37.5 μL) of the working solution of proprietary compound to each tube. An aliquot (100 μL) from each tube was removed at time 0, 5, 30, 60, and 120 min and added to a tube containing acetonitrile (200 μL) to stop the reaction.
The samples were centrifuged at 14000 g for 15 minutes at 4° C. The supernatant was transferred to clean labeled HPLC injection vials and stored at −80° C. until analyzed. An aliquot of the supernatant (25 μL) was injected onto the LC-UV system for analysis.
Half lives of a sample of test articles is noted in the following table. Half life was determined in the presence or absence of plasma.

[1] = pig liver esterase in human plasma protein solution
[2] = pig liver esterase in phosphate buffer pH 7.4, no plasma, read-out: Pig Liver Esterase (t1/2 min.) (−) Plasma
[3] = pig liver esterase in human plasma protein solution, read-out: Pig Liver Esterase (t1/2 min.) (+) Plasma

Compound	EC50 (Gal-4 hPPARγ)	EC50 (Gal-4 hPPARβ/δ)	EC50 (Full Length hPPARα)	Pig Liver Esterase (t1/2 min.) (+) Plasma (pig liver esterase; [1])	half-life at 4.9 µM (pig liver esterase; [2])	half-life at 4.9 µM (pig liver esterase; [3])
CCCCCCn1c(COC(=O)c2ccc(OC(C)(C)C(=O)O)cc2)nn(Cc2ccc(C)cc2)c1=O [Compound 151, 2-(4-(((4-hexyl-1-(4-methylbenzyl)-5-oxo-4,5-dihydro-1H-1,2,4-triazol-3-yl)methoxy)carbonyl)phenoxy)-2-methylpropanoic acid]	> 1000 nM	> 1000 nM	< 1 nM	Stable	31 min	
Cc1ccc(Cn2cc(COC(=O)c3ccc(SC(C)(C)C(=O)O)cc3)cn2)cc1 [Compound 3, 2-methyl-2-(4-(((1-(4-methylbenzyl)-1H-pyrazol-4-yl)methoxy)carbonyl)phenylthio)propanoic acid]	> 1000 nM	> 1000 nM	< 1 nM		19 min	> 120 min
CCCn1c(COC(=O)c2ccc(OC(C)(C)C(=O)O)cc2)nn(Cc2ccc(C(C)(C)C)cc2)c1=O [Compound 150, 2-(4-(((1-(4-tert-butylbenzyl)-5-oxo-4-propyl-4,5-dihydro-1H-1,2,4-triazol-3-yl)methoxy)carbonyl)phenoxy)-2-methylpropanoic acid]	> 1000 nM	> 1000 nM	1 to 50 nM	Stable	31 min	
Cc1ccc(Cn2cc([C@@H](C)OC(=O)c3ccc(SC(C)(C)C(=O)O)cc3)nn2)cc1 [Compound 87, (R)-2-methyl-2-(4-((1-(1-(4-methylbenzyl)-1H-1,2,3-triazol-4-yl)ethoxy)carbonyl)phenylthio)propanoic acid]	> 1000 nM	> 1000 nM			19 min	83 min
CC(C)(Sc1ccc(C(=O)OCc2cn(Cc3ccc(C(C)(C)C)cc3)nn2)cc1)C(=O)O [Compound 69, 2-(4-(((1-(4-tert-butylbenzyl)-1H-1,2,3-triazol-4-yl)methoxy)carbonyl)phenylthio)-2-methylpropanoic acid]	> 1000 nM	> 1000 nM			14 min	126 min
CCCCCCn1c(COC(=O)c2ccc(SC(C)(C)C(=O)O)cc2)nn(Cc2ccc(C)cc2)c1=O [Compound 160, 2-(4-(((4-hexyl-1-(4-methylbenzyl)-5-oxo-4,5-dihydro-1H-1,2,4-triazol-3-yl)methoxy)carbonyl)phenylthio)-2-methylpropanoic acid]	51 to 200 nM	> 1000 nM	< 1 nM		< 5 min	> 120 min
CCCn1c(COC(=O)c2ccc(SC(C)(C)C(=O)O)cc2)nn(Cc2ccc(C(C)(C)C)cc2)c1=O [Compound 159, 2-(4-(((1-(4-tert-butylbenzyl)-5-oxo-4-propyl-4,5-dihydro-1H-1,2,4-triazol-3-yl)methoxy)carbonyl)phenylthio)-2-methylpropanoic acid]	> 1000 nM	> 1000 nM	1 to 50 nM		3 min	97 min
CCCCCCCCn1c(COC(=O)c2ccc(OC(C)(C)C(=O)O)cc2)nn(Cc2ccc(C)cc2)c1=O [Compound 152, 2-methyl-2-(4-(((1-(4-methylbenzyl)-4-octyl-5-oxo-4,5-dihydro-1H-1,2,4-triazol-3-yl)methoxy)carbonyl)phenoxy)propanoic acid]	> 1000 nM	> 1000 nM	< 1 nM	Stable	30 min	
CCCCCCn1c(COC(=O)c2ccc(SC(C)(C)C(=O)O)cc2)nn(Cc2ccc(C(C)(C)C)cc2)c1=O [Compound 187, 2-(4-(((1-(4-tert-butylbenzyl)-4-hexyl-5-oxo-4,5-dihydro-1H-1,2,4-triazol-3-yl)methoxy)carbonyl)phenylthio)-2-methylpropanoic acid]	51 to 200 nM	> 1000 nM	< 1 nM		26 min	64 min
CC(C)(Sc1ccc(C(=O)OCCc2cn(Cc3ccc(C(F)(F)F)cc3)nn2)cc1)C(=O)O [Compound 91, 2-methyl-2-(4-((2-(1-(4-(trifluoromethyl)benzyl)-1H-1,2,3-triazol-4-yl)ethoxy)carbonyl)phenylthio)propanoic acid]	> 1000 nM	> 1000 nM			64 min	> 120 min
CCCc1nn(Cc2ccc(C(F)(F)F)cc2)cc1COC(=O)c1ccc(SC(C)(C)C(=O)O)cc1 [Compound 12, 2-methyl-2-(4-(((3-propyl-1-(4-(trifluoromethyl)benzyl)-1H-pyrazol-4-yl)methoxy)carbonyl)phenylthio)propanoic acid]	> 1000 nM	> 1000 nM			< 5 min	61 min
COC(c1ccc(Cn2cc(COC(=O)c3ccc(SC(C)(C)C(=O)O)cc3)nn2)cc1)(C(F)(F)F)C(F)(F)F [Compound 75, 2-(4-(((1-(4-(1,1,1,3,3,3-hexafluoro-2-methoxypropan-2-yl)benzyl)-1H-1,2,3-triazol-4-yl)methoxy)carbonyl)phenylthio)-2-methylpropanoic acid]	> 1000 nM	> 1000 nM			29 min	160 min
